Measured values as given in US7118895B2, “Process for producing aglycon by using diglycosidase and flavor-improved food containing the aglycon and converting agent to be used in the process” (Amano Enzyme Inc., priority 2000, dated 2006).

Test system: Crude diglycosidase
Test: Examination of temperature in the conversion into isoflavone aglycons by diglycosidase using soybean materials
Format: biochemical, Penicillium multicolor IAM7153
Design: Decomposition efficiency of glycitin family in roasted soy flour / Decomposition efficiency of daidzin family in roasted soy flour / Decomposition efficiency of genistin family in soymilk / Decomposition efficiency of daidzin family in soymilk / Decomposition efficiency of glycitin family in defatted soybean / Decomposition efficiency of daidzin family in defatted soybean: concentration or dose not given beside the values
Details: for maximum isolation of aglycons: reaction at 55° C. for 6 hours
Method in brief: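 Soybean materials (50 mg) suspended in 20 mM acetate buffer pH 4.0 reacted with crude diglycosidase diluted to 1.88 AU/mL at 80, 65, 55, 45, 37 or 30° C. Reactions stopped with ethanol at 0, 1, 3 and 6 h; isoflavone glycosides and aglycons in supernatant detected by HPLC.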

[1] = 30 °C, heat treatment of enzyme: no, 0 h
[2] = 30 °C, heat treatment of enzyme: no, 1 h
[3] = 30 °C, heat treatment of enzyme: no, 3 h
[4] = 30 °C, heat treatment of enzyme: no, 6 h
[5] = 30 °C, heat treatment of enzyme: yes, 6 h
[6] = 45 °C, heat treatment of enzyme: no, 0 h
[7] = 45 °C, heat treatment of enzyme: no, 1 h
[8] = 45 °C, heat treatment of enzyme: no, 3 h
[9] = 45 °C, heat treatment of enzyme: no, 6 h
[10] = 45 °C, heat treatment of enzyme: yes, 6 h
[11] = 55 °C, heat treatment of enzyme: no, 0 h
[12] = 55 °C, heat treatment of enzyme: no, 1 h
[13] = 55 °C, heat treatment of enzyme: no, 3 h
[14] = 55 °C, heat treatment of enzyme: no, 6 h
[15] = 55 °C, heat treatment of enzyme: yes, 6 h
[16] = 65 °C, heat treatment of enzyme: no, 0 h
[17] = 65 °C, heat treatment of enzyme: no, 1 h
[18] = 65 °C, heat treatment of enzyme: no, 3 h
[19] = 65 °C, heat treatment of enzyme: no, 6 h
[20] = 65 °C, heat treatment of enzyme: yes, 6 h
[21] = 80 °C, heat treatment of enzyme: no, 0 h
[22] = 80 °C, heat treatment of enzyme: no, 1 h
[23] = 80 °C, heat treatment of enzyme: no, 3 h
[24] = 80 °C, heat treatment of enzyme: no, 6 h
[25] = 80 °C, heat treatment of enzyme: yes, 6 h

Compound: COc1cc2c(=O)c(-c3ccc(O)cc3)coc2cc1O [glycitein]
- Decomposition efficiency of glycitin family in defatted soybean (30° C., heat treatment of enzyme no, reaction time 0 h): 38.7%
- Decomposition efficiency of glycitin family in defatted soybean (30° C., heat treatment of enzyme no, reaction time 1 h): 51.7%
- Decomposition efficiency of glycitin family in defatted soybean (30° C., heat treatment of enzyme no, reaction time 3 h): 55.4%
- Decomposition efficiency of glycitin family in defatted soybean (30° C., heat treatment of enzyme no, reaction time 6 h): 54.4%
- Decomposition efficiency of glycitin family in defatted soybean (30° C., heat treatment of enzyme yes, reaction time 6 h): 54.9%
- Decomposition efficiency of glycitin family in concentrated soybean protein [1]: 11.4%
- Decomposition efficiency of glycitin family in roasted soy flour [1]: 10.4%
- Decomposition efficiency of glycitin family in soymilk [1]: 8.1%
- Decomposition efficiency of glycitin family in concentrated soybean protein [2]: 17.5%
- Decomposition efficiency of glycitin family in roasted soy flour [2]: 31.5%
- Decomposition efficiency of glycitin family in soymilk [2]: 49.0%
- Decomposition efficiency of glycitin family in concentrated soybean protein [3]: 26.9%
- Decomposition efficiency of glycitin family in roasted soy flour [3]: 66.8%
- Decomposition efficiency of glycitin family in soymilk [3]: 60.4%
- Decomposition efficiency of glycitin family in concentrated soybean protein [4]: 40.3%
- Decomposition efficiency of glycitin family in roasted soy flour [4]: 80.9%
- Decomposition efficiency of glycitin family in soymilk [4]: 71.6%
- Decomposition efficiency of glycitin family in concentrated soybean protein [5]: 11.3%
- Decomposition efficiency of glycitin family in roasted soy flour [5]: 11.1%
- Decomposition efficiency of glycitin family in soymilk [5]: 7.9%
- Decomposition efficiency of glycitin family in defatted soybean (45° C., heat treatment of enzyme no, reaction time 0 h): 34.8%
- Decomposition efficiency of glycitin family in defatted soybean (45° C., heat treatment of enzyme no, reaction time 1 h): 55.7%
- Decomposition efficiency of glycitin family in defatted soybean (45° C., heat treatment of enzyme no, reaction time 3 h): 55.2%
- Decomposition efficiency of glycitin family in defatted soybean (45° C., heat treatment of enzyme no, reaction time 6 h): 59.0%
- Decomposition efficiency of glycitin family in defatted soybean (45° C., heat treatment of enzyme yes, reaction time 6 h): 55.8%
- Decomposition efficiency of glycitin family in concentrated soybean protein [6]: 11.4%
- Decomposition efficiency of glycitin family in roasted soy flour [6]: 10.4%
- Decomposition efficiency of glycitin family in soymilk [6]: 8.2%
- Decomposition efficiency of glycitin family in concentrated soybean protein [7]: 35.2%
- Decomposition efficiency of glycitin family in roasted soy flour [7]: 60.2%
- Decomposition efficiency of glycitin family in soymilk [7]: 53.8%
- Decomposition efficiency of glycitin family in concentrated soybean protein [8]: 49.6%
- Decomposition efficiency of glycitin family in roasted soy flour [8]: 67.4%
- Decomposition efficiency of glycitin family in soymilk [8]: 70.1%
- Decomposition efficiency of glycitin family in concentrated soybean protein [9]: 64.9%
- Decomposition efficiency of glycitin family in roasted soy flour [9]: 85.0%
- Decomposition efficiency of glycitin family in soymilk [9]: 84.7%
- Decomposition efficiency of glycitin family in concentrated soybean protein [10]: 11.3%
- Decomposition efficiency of glycitin family in roasted soy flour [10]: 13.4%
- Decomposition efficiency of glycitin family in soymilk [10]: 7.4%
- Decomposition efficiency of glycitin family in defatted soybean (55° C., heat treatment of enzyme no, reaction time 0 h): 38.7%
- Decomposition efficiency of glycitin family in defatted soybean (55° C., heat treatment of enzyme no, reaction time 1 h): 55.2%
- Decomposition efficiency of glycitin family in defatted soybean (55° C., heat treatment of enzyme no, reaction time 3 h): 57.4%
- Decomposition efficiency of glycitin family in defatted soybean (55° C., heat treatment of enzyme no, reaction time 6 h): 57.3%
- Decomposition efficiency of glycitin family in defatted soybean (55° C., heat treatment of enzyme yes, reaction time 6 h): 54.5%
- Decomposition efficiency of glycitin family in concentrated soybean protein [11]: 11.2%
- Decomposition efficiency of glycitin family in roasted soy flour [11]: 10.4%
- Decomposition efficiency of glycitin family in soymilk [11]: 7.6%
- Decomposition efficiency of glycitin family in concentrated soybean protein [12]: 51.4%
- Decomposition efficiency of glycitin family in roasted soy flour [12]: 69.9%
- Decomposition efficiency of glycitin family in soymilk [12]: 60.9%
- Decomposition efficiency of glycitin family in concentrated soybean protein [13]: 69.7%
- Decomposition efficiency of glycitin family in roasted soy flour [13]: 87.9%
- Decomposition efficiency of glycitin family in soymilk [13]: 72.3%
- Decomposition efficiency of glycitin family in concentrated soybean protein [14]: 72.7%
- Decomposition efficiency of glycitin family in roasted soy flour [14]: 94.0%
- Decomposition efficiency of glycitin family in soymilk [14]: 83.5%
- Decomposition efficiency of glycitin family in concentrated soybean protein [15]: 11.3%
- Decomposition efficiency of glycitin family in roasted soy flour [15]: 11.0%
- Decomposition efficiency of glycitin family in soymilk [15]: 6.7%
- Decomposition efficiency of glycitin family in defatted soybean (65° C., heat treatment of enzyme no, reaction time 0 h): 34.8%
- Decomposition efficiency of glycitin family in defatted soybean (65° C., heat treatment of enzyme no, reaction time 1 h): 54.7%
- Decomposition efficiency of glycitin family in defatted soybean (65° C., heat treatment of enzyme no, reaction time 3 h): 57.9%
- Decomposition efficiency of glycitin family in defatted soybean (65° C., heat treatment of enzyme no, reaction time 6 h): 60.0%
- Decomposition efficiency of glycitin family in defatted soybean (65° C., heat treatment of enzyme yes, reaction time 6 h): 51.2%
- Decomposition efficiency of glycitin family in concentrated soybean protein [16]: 11.4%
- Decomposition efficiency of glycitin family in roasted soy flour [16]: 10.4%
- Decomposition efficiency of glycitin family in soymilk [16]: 8.1%
- Decomposition efficiency of glycitin family in concentrated soybean protein [17]: 58.6%
- Decomposition efficiency of glycitin family in roasted soy flour [17]: 65.5%
- Decomposition efficiency of glycitin family in soymilk [17]: 57.6%
- Decomposition efficiency of glycitin family in concentrated soybean protein [18]: 64.0%
- Decomposition efficiency of glycitin family in roasted soy flour [18]: 69.0%
- Decomposition efficiency of glycitin family in soymilk [18]: 65.7%
- Decomposition efficiency of glycitin family in concentrated soybean protein [19]: 63.8%
- Decomposition efficiency of glycitin family in roasted soy flour [19]: 71.0%
- Decomposition efficiency of glycitin family in soymilk [19]: 74.5%
- Decomposition efficiency of glycitin family in concentrated soybean protein [20]: 11.4%
- Decomposition efficiency of glycitin family in roasted soy flour [20]: 10.4%
- Decomposition efficiency of glycitin family in soymilk [20]: 7.2%
- Decomposition efficiency of glycitin family in defatted soybean (80° C., heat treatment of enzyme no, reaction time 0 h): 34.8%
- Decomposition efficiency of glycitin family in defatted soybean (80° C., heat treatment of enzyme no, reaction time 1 h): 53.9%
- Decomposition efficiency of glycitin family in defatted soybean (80° C., heat treatment of enzyme no, reaction time 3 h): 55.0%
- Decomposition efficiency of glycitin family in defatted soybean (80° C., heat treatment of enzyme no, reaction time 6 h): 59.7%
- Decomposition efficiency of glycitin family in defatted soybean (80° C., heat treatment of enzyme yes, reaction time 6 h): 51.9%
- Decomposition efficiency of glycitin family in concentrated soybean protein [21]: 11.4%
- Decomposition efficiency of glycitin family in roasted soy flour [21]: 10.4%
- Decomposition efficiency of glycitin family in soymilk [21]: 8.2%
- Decomposition efficiency of glycitin family in concentrated soybean protein [22]: 23.8%
- Decomposition efficiency of glycitin family in roasted soy flour [22]: 40.8%
- Decomposition efficiency of glycitin family in soymilk [22]: 45.7%
- Decomposition efficiency of glycitin family in concentrated soybean protein [23]: 23.4%
- Decomposition efficiency of glycitin family in roasted soy flour [23]: 41.1%
- Decomposition efficiency of glycitin family in soymilk [23]: 44.9%
- Decomposition efficiency of glycitin family in concentrated soybean protein [24]: 22.8%
- Decomposition efficiency of glycitin family in roasted soy flour [24]: 30.7%
- Decomposition efficiency of glycitin family in soymilk [24]: 34.4%
- Decomposition efficiency of glycitin family in concentrated soybean protein [25]: 11.4%
- Decomposition efficiency of glycitin family in roasted soy flour [25]: 9.9%
- Decomposition efficiency of glycitin family in soymilk [25]: 9.3%
- maximum isolation of aglycons (concentrated soybean protein): about 73%
- maximum isolation of aglycons (defatted soybean): about 57%
- maximum isolation of aglycons (soy flour): about 94%
- maximum isolation of aglycons (soymilk): about 84%
